Where two headings read alike, the source gives them in different places.

For one series, the target named is T1, human urokinase (μUK) (Homo sapiens, UniProt P00749, C299A/N322Q).
T1 construct: μUK (UK amino acids Ile^159-Lys^404 that contain Ala^279Gln^302); made in house; host or cells: baculovirus-infected High-Five insect cells or Pichia pastoris GS115 (secreted)
Nature of the series: Urokinase inhibition constants by S-2444 chromogenic activity. Type of series: biochemical. On the procedure: Assays were completed at both pH 6.5 (0.1 M NaPO4) and 7.4 (50 mM Tris).

The target in a further series is μUK (Homo sapiens, UniProt P00749, C299A/N322Q). Conditions: for binding at the urokinase active site seen in Fo-Fc electron density map: crystal soaked in mixture of 6 to 7 compounds, 3.3 to 5.2 mM each, compound 31 soaked individually.
A short description of series [1]: Oral bioavailability in the rat. Conditions: in vivo, 10 mg/kg dose.
The target of the next series is VanX (Enterococcus faecium, UniProt Q06241). Nature of the series: CrystaLEAD crystallographic screening of VanX crystals. Conditions: crystals soaked in mixtures of 7-10 compounds.
In a further series the target is T2, ErmC′ (Bacillus subtilis, UniProt P13956).
T2 construct: made in house; host or cells: E. coli BL21(DE3)/pLysS with pTERM31 (pET24+ derivative)
In words: CrystaLEAD crystallographic screening of ErmC′ crystals. The format is binding. Conditions: adenosine library, mixtures of 8-9 compounds. An excerpt: The adenosine library consisted of 59 compounds. The library was divided into 7 mixtures of 8-9 shape-diverse compounds and screened by the CrystaLEAD™ method. […] Equal volumes of each compound were mixed to assemble the mixture of […].
Typical usable data were 80-90% complete at 3.4-3.6 Å resolution with merging R-factors of 7-16%.

The mark [2] stands for this setting: pH 6.5 (0.1 M NaPO4), S-2444 substrate, read-out: Ki (pH 6.5).
Where [3] appears, read: pH 7.4 (50 mM Tris), S-2444 substrate, read-out: Ki (pH 7.4).

Chain of VanX (Q06241 whole entry): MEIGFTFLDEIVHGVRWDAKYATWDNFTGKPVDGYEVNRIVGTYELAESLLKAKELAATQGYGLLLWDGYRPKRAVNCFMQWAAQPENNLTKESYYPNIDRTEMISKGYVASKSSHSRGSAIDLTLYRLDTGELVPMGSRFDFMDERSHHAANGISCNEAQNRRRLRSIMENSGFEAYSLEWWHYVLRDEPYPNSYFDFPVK
T2 sequence (P13956 whole entry): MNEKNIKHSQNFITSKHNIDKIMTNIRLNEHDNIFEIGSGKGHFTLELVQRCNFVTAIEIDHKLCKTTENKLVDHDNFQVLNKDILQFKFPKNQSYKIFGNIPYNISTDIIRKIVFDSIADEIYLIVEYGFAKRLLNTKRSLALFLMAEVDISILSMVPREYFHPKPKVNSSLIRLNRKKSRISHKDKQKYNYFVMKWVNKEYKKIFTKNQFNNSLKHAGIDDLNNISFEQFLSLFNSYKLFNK

As a reminder, the Ki is the equilibrium dissociation constant of an inhibitor or competing ligand from its target. Usually pKa stands for the negative logarithm of the acid dissociation constant. Regarding `Cc1nc(N)ccc1Br` [Compound 5], the Ki at human urokinase (μUK) (setting [2]) and on human urokinase (μUK) (setting [3]) was > 500 µM throughout. The compound also had a pKa in “pKa of CrystaLEAD hits” of 6. Besides, on μUK, the “binding at the urokinase active site seen in Fo-Fc electron density map” value (“binding … in Fo-Fc electron density map” below) is “binder”.
Take `Nc1ccc2cccc(O)c2n1` [Compound 19, 2-amino-8-hydroxyquinoline]: the Ki was 137 µM on human urokinase (μUK) (Ki (pH 7.4), pH 7.4 (50 mM Tris), S-2444 substrate) and 56 µM on human urokinase (μUK) (Ki at pH 6.5, pH 6.5, restated in Example 3). This compound also came in with a pKa in the series “pKa of CrystaLEAD hits” of 7.3. The “binding … in Fo-Fc electron density map” value on μUK is “bound”. On μUK (mixture of 100 compounds spiked with compound 19 at 180 μM, 1% DMSO, 4 hours 15 minutes soak), the “binding at the urokinase active site seen in electron density map, 100 compound mixture” value is listed as “positive hit”.
For the compound `Nc1ccc2c(c1)CC=N2` [Compound 22, 5-aminoindole], the Ki on human urokinase (μUK) (setting [2]) was 200 µM; at human urokinase (μUK) (setting [3]), > 500 µM. The compound further had a pKa in the series “pKa of CrystaLEAD hits” of 6. Also, the “binding … in Fo-Fc electron density map” value on μUK was “found to bind”.
For the compound `Cc1ccc(N)nc1` [Compound 31], the Ki on human urokinase (μUK) (Ki (pH 6.5)) and at human urokinase (μUK) (Ki (pH 7.4)) was > 500 µM each time. Further, the pKa in the series “pKa of CrystaLEAD hits” stood at 7. The “binding … in Fo-Fc electron density map” value on μUK was “found to bind”.
For orientation: bioavailability means the share of a dose that reaches the circulation, judged against a reference dose that is usually intravenous. A low value points to little systemic uptake. In series [1], `Nc1ccc2cccc(Nc3ncccn3)c2n1` [Compound 35, 8-aminopyrimidinyl-2-aminoquinoline] gave a bioavailability of 30 to 40%.
`O=C(O)C1CCCC1` [Compound 36]: on VanX, the “binding at the VanX active site seen in electron density map” value is listed as “bound”.
Still for that read-out and setting: to `O=C(O)CCC1CCCC1` [Compound 37] belongs “found to bind”; to `O=C(O)C(=O)CS` [Compound 39], “bound”.
Still for that read-out and setting: to `N[C@@H](CS)C(=O)O` [Compound 41] belongs “binding”.
For the compound `OCC1OC(n2cnc3c(NCc4ccccc4)ncnc32)C(O)C1O` (stereo not drawn) [Compound 44], the “binding to ErmC′ seen in electron density map” value at ErmC′ is listed as “hits”.
Turning to `OCC1OC(n2cnc3c(NC4CCCCC4)ncnc32)C(O)C1O` (stereo not drawn) [Compound 45], the “binding to ErmC′ seen in electron density map” value on ErmC′ is listed as “hits”.
